Experimental data reported in patent US12195482B1 (Arcus Biosciences, Inc., priority 2022, dated 2025).

Experiments:
[1] = biological target: T1, p-AXL (Homo sapiens, UniProt P30530); assay: Axl phosphorylation inhibition ELISA in HEK293T cells transfected with NanoLuc-tagged AXL; format: cell-based; details: 1 h compound incubation, media (OptiMEM)
T1 construct: expressed in transfected cells; host or cells: HEK293T
T1 sequence (P30530 26-894): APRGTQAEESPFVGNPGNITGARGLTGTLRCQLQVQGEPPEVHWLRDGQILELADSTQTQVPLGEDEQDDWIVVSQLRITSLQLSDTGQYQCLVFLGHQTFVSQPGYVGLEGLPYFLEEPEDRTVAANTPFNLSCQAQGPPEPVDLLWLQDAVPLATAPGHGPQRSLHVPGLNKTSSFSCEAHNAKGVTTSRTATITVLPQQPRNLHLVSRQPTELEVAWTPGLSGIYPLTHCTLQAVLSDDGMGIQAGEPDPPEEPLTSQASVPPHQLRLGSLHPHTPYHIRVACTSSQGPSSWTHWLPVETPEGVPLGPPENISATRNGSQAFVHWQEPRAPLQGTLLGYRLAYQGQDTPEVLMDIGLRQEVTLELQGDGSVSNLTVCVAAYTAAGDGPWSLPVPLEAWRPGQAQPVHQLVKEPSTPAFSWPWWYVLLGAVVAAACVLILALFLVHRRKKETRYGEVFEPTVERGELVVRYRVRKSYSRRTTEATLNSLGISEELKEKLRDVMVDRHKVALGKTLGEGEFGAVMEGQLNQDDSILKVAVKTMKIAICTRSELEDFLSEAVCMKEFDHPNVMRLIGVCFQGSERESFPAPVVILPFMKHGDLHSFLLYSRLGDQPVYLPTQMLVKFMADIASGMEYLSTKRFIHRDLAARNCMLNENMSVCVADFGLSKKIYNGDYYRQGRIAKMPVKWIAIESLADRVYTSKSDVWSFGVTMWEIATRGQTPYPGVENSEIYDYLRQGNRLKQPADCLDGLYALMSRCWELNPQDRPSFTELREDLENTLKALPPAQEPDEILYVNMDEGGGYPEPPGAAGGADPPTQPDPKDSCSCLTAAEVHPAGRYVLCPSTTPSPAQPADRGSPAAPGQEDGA
How it was run: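 Phospho-AXL detected by luminescence of NanoLuc tag after capture of cell lysate on biotinylated anti-phospho-tyrosine mAb plates (2 h). Lysates came from transiently transfected HEK293T cells treated 1 h at 37° C with serial 2-fold dilutions (22 points). IC50 by standard 4-parameter logistic fitting.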

[2] = biological target: T2, Axl (Homo sapiens, UniProt P30530); assay: Biochemical potency, HTRF KinEASE-TK kinase assay; design: purchased Invitrogen; details: 5 nM AXL, 700 μM ATP
T2 sequence (P30530 26-894): T1 sequence (P30530 26-894)
How it was run: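 Compounds preincubated 1 h at RT with enzyme in 50 mM HEPES pH 7.4, 10 mM MgCl2, 0.01% BSA, 1 mM DTT; reactions then ran 2 h at RT with 5 nM AXL or 1 nM TYRO3/MER, 800 nM TK substrate-biotin, 700 μM ATP, 1% DMSO. HTRF 665/620 ratio read; percent activity calculated.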

Row | IC50 [1] | IC50 [2] | SMILES
1 | < 100 nM | < 100 nM | Cc1ccc(C)c(-c2ccc(-c3n[nH]c4ncc(-c5ccc6c(c5)CC[C@@H](N5C[C@@H]7C[C@H]5CO7)CC6)cc34)cc2)n1 [Example 141, (1S,4S)-5-[(7S)-2-{3-[4-(3,6-Dimethylpyridin-2-yl)phenyl]-1H-pyrazolo[3,4-b]pyridin-5-yl}-6,7,8,9-tetrahydro-5H-benzo[7]annulen-7-yl]-2-oxa-5-azabicyclo[2.2.1]heptane]
2 | < 100 nM | < 100 nM | COC[C@H]1CCN([C@H]2CCc3ccc(-c4cnc5[nH]cc(-c6ccc(-c7nc(C)cnc7C)cc6)c5c4)cc3CC2)C1 [Example 63, 3-(4-{5-[(7S)-7-[(3S)-3-(Methoxymethyl)pyrrolidin-1-yl]-6,7,8,9-tetrahydro-5H-benzo[7]annulen-2-yl]-1H-pyrrolo[2,3-b]pyridin-3-yl}phenyl)-2,5-dimethylpyrazine]
3 | 100 to 1000 nM | < 100 nM | Cc1cccnc1-c1ccc(-c2n[nH]c3ncc(-c4ccc5c(c4)CCC(N4CCCC4)C5)cc23)cc1 (stereo not shown) [Example 19, 3-Methyl-2-(4-{5-[6-(pyrrolidin-1-yl)-5,6,7,8-tetrahydronaphthalen-2-yl]-1H-pyrazolo[3,4-b]pyridin-3-yl}phenyl)pyridine]
4 | < 100 nM | < 100 nM | Cc1ccc(C)c(-c2ccc(-c3n[nH]c4ncc(-c5ccc6c(c5)CC[C@@H](N5CCCC5)CC6)cc34)cc2)n1 [Example 139, 3,6-Dimethyl-2-(4-{5-[(7S)-7-(pyrrolidin-1-yl)-6,7,8,9-tetrahydro-5H-benzo[7]annulen-2-yl]-1H-pyrazolo[3,4-b]pyridin-3-yl}phenyl)pyridine]
5 | < 100 nM | < 100 nM | Cc1ccc(C)c(-c2ccc(-c3n[nH]c4ncc(-c5ccc6c(c5)CC[C@@](C)(N5CCC[C@H]5C)CC6)cc34)cc2)n1 [Example 136, 3,6-Dimethyl-2-(4-{5-[(7S)-7-methyl-7-[(2R)-2-methylpyrrolidin-1-yl]-6,7,8,9-tetrahydro-5H-benzo[7]annulen-2-yl]-1H-pyrazolo[3,4-b]pyridin-3-yl}phenyl)pyridine]
6 | < 100 nM | < 100 nM | Cc1ccc(C#N)c(-c2ccc(-c3n[nH]c4ncc(-c5ccc6c(c5)CC[C@@H](N5C7COCC5C7)CC6)cc34)cc2)n1 [Example 70, 6-Methyl-2-(4-{5-[(7S)-7-{3-oxa-6-azabicyclo[3.1.1]heptan-6-yl}-6,7,8,9-tetrahydro-5H-benzo[7]annulen-2-yl]-1H-pyrazolo[3,4-b]pyridin-3-yl}phenyl)pyridine-3-carbonitrile]

Second part, the molecule before the results:

Row | SMILES | IC50 [1] | IC50 [2]
7 | CN1CCOc2ccnc(-c3ccc(-c4n[nH]c5ncc(-c6ccc7c(c6)CC[C@@H](N6C8COCC6C8)CC7)cc45)cc3)c21 [Example 151, 6-[(7S)-2-[3-(4-{4-Methyl-2H,3H,4H-pyrido[4,3-b][1,4]oxazin-5-yl}phenyl)-1H-pyrazolo[3,4-b]pyridin-5-yl]-6,7,8,9-tetrahydro-5H-benzo[7]annulen-7-yl]-3-oxa-6-azabicyclo[3.1.1]heptane] | < 100 nM | < 100 nM
8 | Cc1cccc(F)c1-c1ccc(-c2c[nH]c3ncc(-c4ccc5c(c4)CC[C@@H](N4C6COCC4C6)CC5)cc23)cc1 [Example 84, 6-[(7S)-2-(3-{2′-Fluoro-6′-methyl-[1,1′-biphenyl]-4-yl}-1H-pyrrolo[2,3-b]pyridin-5-yl)-6,7,8,9-tetrahydro-5H-benzo[7]annulen-7-yl]-3-oxa-6-azabicyclo[3.1.1]heptane] | > 1000 nM | < 100 nM
9 | C[C@@H]1CCCN1[C@@]1(C)CCc2ccc(-c3cnc4[nH]nc(-c5ccc(-c6ncccc6C#N)cc5)c4c3)cc2CC1 [Example 66, 2-(4-{5-[(7S)-7-Methyl-7-[(2R)-2-methylpyrrolidin-1-yl]-6,7,8,9-tetrahydro-5H-benzo[7]annulen-2-yl]-1H-pyrazolo[3,4-b]pyridin-3-yl}phenyl)pyridine-3-carbonitrile] | < 100 nM | < 100 nM
10 | Cc1cc(F)cnc1-c1ccc(-c2c[nH]c3ncc(-c4ccc5c(c4)CC[C@@](C)(N4CCC[C@H]4C)CC5)cc23)cc1 [Example 34, 3-[4-(5-Fluoro-3-methylpyridin-2-yl)phenyl]-5-[(7S)-7-methyl-7-[(2R)-2-methylpyrrolidin-1-yl]-5,6,8,9-tetrahydrobenzo[7]annulen-3-yl]-1H-pyrrolo[2,3-b]pyridine] | < 100 nM | < 100 nM
11 | Cc1cnc(-c2ccc(-c3n[nH]c4ncc(-c5ccc6c(c5)CC[C@@](C)(N5CCC[C@H]5C)CC6)cc34)nc2)c(C)n1 [Example 60, 3,5-Dimethyl-2-(6-{5-[(7S)-7-methyl-7-[(2R)-2-methylpyrrolidin-1-yl]-6,7,8,9-tetrahydro-5H-benzo[7]annulen-2-yl]-1H-pyrazolo[3,4-b]pyridin-3-yl}pyridin-3-yl)pyrazine] | 100 to 1000 nM | < 100 nM
12 | Cc1cnc(C)c(-c2ccc(-c3n[nH]c4ncc(-c5ccc6c(c5)CC[C@@](C)(N5CCC[C@H]5C)CC6)cc34)nc2)n1 [Example 61, 2,5-Dimethyl-3-(6-{5-[(7S)-7-methyl-7-[(2R)-2-methylpyrrolidin-1-yl]-6,7,8,9-tetrahydro-5H-benzo[7]annulen-2-yl]-1H-pyrazolo[3,4-b]pyridin-3-yl}pyridin-3-yl)pyrazine] | < 100 nM | < 100 nM
13 | CCn1ncnc1-c1ccc(-c2n[nH]c3ncc(-c4ccc5c(c4)CC[C@@H](N4C6COCC4C6)CC5)cc23)cc1 [Example 138, 6-[(7S)-2-{3-[4-(1-Ethyl-1H-1,2,4-triazol-5-yl)phenyl]-1H-pyrazolo[3,4-b]pyridin-5-yl}-6,7,8,9-tetrahydro-5H-benzo[7]annulen-7-yl]-3-oxa-6-azabicyclo[3.1.1]heptane] | < 100 nM | < 100 nM
14 | Cc1cccnc1-c1cccc(-c2n[nH]c3ncc(-c4ccc5c(c4)CC[C@@H](N4C6COCC4C6)CC5)cc23)c1 [Example 81, 6-[(7S)-2-{3-[3-(3-Methylpyridin-2-yl)phenyl]-1H-pyrazolo[3,4-b]pyridin-5-yl}-6,7,8,9-tetrahydro-5H-benzo[7]annulen-7-yl]-3-oxa-6-azabicyclo[3.1.1]heptane] | < 100 nM | < 100 nM
15 | Cc1ccc(C)c(-c2ccc(-c3c[nH]c4ncc(-c5ccc6c(c5)CC[C@@H](N5C7COC[C@H]5C7)CC6)cc34)nc2)n1 [Example 142, 3,6-Dimethyl-6′-{5-[(7S)-7-[(1R)-3-oxa-6-azabicyclo[3.1.1]heptan-6-yl]-6,7,8,9-tetrahydro-5H-benzo[7]annulen-2-yl]-1H-pyrrolo[2,3-b]pyridin-3-yl}-2,3′-bipyridine] | < 100 nM | < 100 nM
16 | Cc1cccnc1-c1ncc(-c2c[nH]c3ncc(-c4ccc5c(c4)CC[C@@H](N4C6COCC4C6)CC5)cc23)cn1 [Example 38, 6-[(7S)-3-[3-[2-(3-Methylpyridin-2-yl)pyrimidin-5-yl]-1H-pyrrolo[2,3-b]pyridin-5-yl]-6,7,8,9-tetrahydro-5H-benzo[7]annulen-7-yl]-3-oxa-6-azabicyclo[3.1.1]heptane] | < 100 nM | < 100 nM
17 | Cc1cccnc1-c1cnc(-c2c[nH]c3ncc(-c4ccc5c(c4)CC[C@@H](N4C6COCC4C6)CC5)cc23)nc1 [Example 37, 6-[(7S)-3-[3-[5-(3-Methylpyridin-2-yl)pyrimidin-2-yl]-1H-pyrrolo[2,3-b]pyridin-5-yl]-6,7,8,9-tetrahydro-5H-benzo[7]annulen-7-yl]-3-oxa-6-azabicyclo[3.1.1]heptane] | < 100 nM | < 100 nM
